The values below come from patent publication US20250154607A1, “ISOTHERMAL AMPLIFICATION OF PATHOGENS” (priority 2021, published 2025).

The target of the assay is 9° Nm™ DNA polymerase (Thermococcus sp., UniProt Q56366, E143D). The experiment in a line: APA amplification of Neisseria gonorrhea DNA with SDS, with or without HPβCD. The conditions noted are these: no protective agent (absence of βCD); 500 copies N. gonorrhea genomic DNA; APA at 68° C. In kind it is biochemical. As for the experimental part:
This example provides SDS complexation analyses of the methods and compositions provided herein. […] Anionic detergent SDS at >0.01% is inhibitory to APA amplification of DNA, but the presence of the protective agent hydroxypropyl β-CD (βCD) allowed amplification to proceed despite≤0.2% SDS. The kinetics of hydroxypropyl β-CD sequestration of SDS were thus sufficiently rapid at a molar ratio of 2:1 (˜14 mM: −7 mM) to prevent 9° Nm™ DNA polymerase inactivation by SDS.
Standard APA reactions with or without 4% Sigma 389145 HPβCD containing “hot-start” CleanAmp™ deoxynucleotides (CAdNTP) and a sequence-specific molecular beacon detection probe were performed with lyophilized ((supplemented with dextran 40, Trehalose), FIG. 2B) or “wet” (no HPβCD, FIG. 2A) reagents including Tris pH 8.4, KCl, MgSO4, and (NH4)2SO4 Triton X-100, 9° Nm™ DNA polymerase, CAdNTP, primers and probe. For the lyophilized reactions, samples were prepared in 50 μl solution containing MgSO4, and (NH4)2SO4 with (shapes) or without (dashed) 500 copies of N. gonorrhea genomic DNA. After dried reagents were dissolved with the samples, various amounts of SDS were added, as indicated, and solutions were vortexed. For the wet reactions, 45 μl master mix containing all reaction components was added to 5 μl sample containing 1OX SDS (final concentration as indicated), with and without 500 copies of N. gonorrhea genomic DNA. Activation of CAdNTP by 2 minutes 90° C. was followed by APA at 68° C. for 10 minutes with detection of the NG amplification product by fluorescence collected every 15 seconds.

Sequence of 9° Nm™ DNA polymerase (Q56366 whole entry E143D): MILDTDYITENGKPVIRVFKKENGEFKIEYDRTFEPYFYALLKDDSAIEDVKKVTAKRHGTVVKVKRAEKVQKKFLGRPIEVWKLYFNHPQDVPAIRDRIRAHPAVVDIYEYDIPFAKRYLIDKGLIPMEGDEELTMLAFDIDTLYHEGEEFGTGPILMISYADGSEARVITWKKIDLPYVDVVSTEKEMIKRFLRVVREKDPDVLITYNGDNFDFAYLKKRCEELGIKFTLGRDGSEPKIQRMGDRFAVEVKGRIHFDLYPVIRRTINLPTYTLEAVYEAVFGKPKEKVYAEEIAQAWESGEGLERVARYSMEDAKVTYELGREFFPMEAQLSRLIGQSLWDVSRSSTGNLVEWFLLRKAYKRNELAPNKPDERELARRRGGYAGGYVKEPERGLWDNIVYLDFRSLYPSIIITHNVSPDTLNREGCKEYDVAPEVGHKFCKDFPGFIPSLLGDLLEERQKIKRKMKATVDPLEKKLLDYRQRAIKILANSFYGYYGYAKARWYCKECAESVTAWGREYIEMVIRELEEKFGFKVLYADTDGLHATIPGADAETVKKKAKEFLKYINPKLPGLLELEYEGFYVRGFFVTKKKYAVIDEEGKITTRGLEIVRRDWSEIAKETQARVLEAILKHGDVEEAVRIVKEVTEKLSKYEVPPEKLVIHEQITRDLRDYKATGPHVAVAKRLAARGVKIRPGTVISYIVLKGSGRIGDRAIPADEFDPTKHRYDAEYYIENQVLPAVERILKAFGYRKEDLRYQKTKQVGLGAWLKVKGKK

Consider `CCCCCCCCCCCCOS(=O)(=O)[O-].[Na+]` [SDS, sodium dodecyl sulfate], for which the “SDS concentration inhibitory to APA amplification of DNA” value is greater than 0.01%.
